This is an account of results in PubChem BioAssay AID624129 (Sanford-Burnham Center for Chemical Genomics, 2012).

Activity calls are given as the source filed them. No rule for the calls is given here.

Common to all, as to test: CXCR6 receptor antagonists, dose response, cell-based, beta-arrestin, DiscoveRx, APJ panel, uHTS hits (AID 624129)
For assay [1], the target named is Apelin receptor (Homo sapiens) (UniProt P35414). Conditions: CXCR6 beta-arrestin (DiscoveRx) antagonist cell assay, APJ.
Assay [2] deals with C-X-C chemokine receptor type 6 (Homo sapiens) (UniProt O00574). Conditions: CXCR6 beta-arrestin (DiscoveRx) antagonist cell assay; for inhibition: CXCR6, run 1, dose range 2, at 80 µM (top of the series).
Chain of C-X-C chemokine receptor type 6 (Homo sapiens) (O00574 whole entry, looked up): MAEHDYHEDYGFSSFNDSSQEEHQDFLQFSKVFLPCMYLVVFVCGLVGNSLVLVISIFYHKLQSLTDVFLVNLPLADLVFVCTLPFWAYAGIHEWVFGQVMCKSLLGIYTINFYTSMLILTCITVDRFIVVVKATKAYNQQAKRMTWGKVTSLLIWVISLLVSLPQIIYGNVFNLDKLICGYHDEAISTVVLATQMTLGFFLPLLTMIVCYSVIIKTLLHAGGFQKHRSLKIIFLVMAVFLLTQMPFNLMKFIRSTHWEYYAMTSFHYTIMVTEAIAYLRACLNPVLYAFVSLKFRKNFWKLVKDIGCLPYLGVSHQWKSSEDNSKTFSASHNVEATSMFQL
In assay [3] the target is C-C chemokine receptor type 6 (Homo sapiens) (UniProt P51684). Conditions: CXCR6 beta-arrestin (DiscoveRx) antagonist cell assay.
Assay [4] deals with Beta-galactosidase (Escherichia coli) (UniProt Q8VNN2). The conditions noted are these: CXCR6 beta-arrestin (DiscoveRx) antagonist cell assay, b-galactosidase.
Chain of Beta-galactosidase (Escherichia coli) (Q8VNN2 whole entry, looked up): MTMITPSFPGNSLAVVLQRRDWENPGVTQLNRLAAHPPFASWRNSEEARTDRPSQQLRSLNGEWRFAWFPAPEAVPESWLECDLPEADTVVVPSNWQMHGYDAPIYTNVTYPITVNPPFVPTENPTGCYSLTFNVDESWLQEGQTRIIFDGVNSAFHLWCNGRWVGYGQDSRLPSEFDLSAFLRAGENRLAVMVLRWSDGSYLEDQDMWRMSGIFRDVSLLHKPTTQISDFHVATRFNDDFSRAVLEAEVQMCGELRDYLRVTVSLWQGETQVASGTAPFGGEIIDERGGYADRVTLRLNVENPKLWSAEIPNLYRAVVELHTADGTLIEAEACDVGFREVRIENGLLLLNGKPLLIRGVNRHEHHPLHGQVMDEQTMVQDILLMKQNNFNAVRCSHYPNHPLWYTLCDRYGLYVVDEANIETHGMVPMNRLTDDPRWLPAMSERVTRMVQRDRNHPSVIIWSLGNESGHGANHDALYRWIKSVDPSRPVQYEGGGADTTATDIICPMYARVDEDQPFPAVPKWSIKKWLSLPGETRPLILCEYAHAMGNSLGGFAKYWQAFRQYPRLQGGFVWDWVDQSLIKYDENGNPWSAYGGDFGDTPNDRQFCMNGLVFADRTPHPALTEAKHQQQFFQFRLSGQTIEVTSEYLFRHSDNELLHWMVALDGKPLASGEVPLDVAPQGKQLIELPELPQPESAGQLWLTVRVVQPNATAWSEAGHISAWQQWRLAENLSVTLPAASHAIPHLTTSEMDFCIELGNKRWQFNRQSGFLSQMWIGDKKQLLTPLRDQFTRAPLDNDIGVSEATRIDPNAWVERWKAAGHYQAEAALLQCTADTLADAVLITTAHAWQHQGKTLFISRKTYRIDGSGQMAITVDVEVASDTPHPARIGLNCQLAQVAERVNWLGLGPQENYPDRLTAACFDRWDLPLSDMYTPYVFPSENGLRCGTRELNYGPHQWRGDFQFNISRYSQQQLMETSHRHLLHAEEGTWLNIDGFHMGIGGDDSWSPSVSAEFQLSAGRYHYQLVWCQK
Setting [5] is: dose range 1, mean IC50 across replicates.
Setting [6] is: CXCR6, dose range 1, mean IC50 across replicates.
Where [7] appears, read: CCR6, dose range 1, mean IC50 across replicates.

As to `Fc1ccc(Sc2nc(-c3ccccc3)nnc2C(F)(F)F)cc1`, the IC50 result in assay [1] (dose range 1) was “inactive”; in assay [2] (CXCR6, dose range 1), “inactive”. Besides, the IC50 was 64.5 µM in assay [1] (setting [5]); 57.4 µM in assay [1] (run 2, dose range 1); more than 80 µM in assay [1] (run 3, dose range 1); 12 µM in assay [2] (setting [6]); 5.63 µM in assay [2] (CXCR6, run 1, dose range 2); 27.7 µM in assay [2] (CXCR6, run 2, dose range 1). Moreover, the IC50 was 8.28 µM in assay [2] (CXCR6, run 2, dose range 2); 7.47 µM in assay [3] (CCR6, dose range 1); 7.42 µM in assay [3] (setting [7]); 7.37 µM in assay [3] (CCR6, run 2, dose range 1); > 80 µM (inactive) in assay [4] (dose range 1); more than 80 µM in assay [4] (setting [5]).
With `CS(=O)(=O)c1ncc(Cl)c(C(=O)Nc2ccc3ccccc3c2)n1`, the IC50 in assay [1] (dose range 1) was 61.2 µM; in assay [1] (setting [5]), 60.7 µM; in assay [1] (run 2, dose range 1) it was 60.1 µM; in assay [1] (run 3, dose range 1), more than 80 µM; in assay [2] (CXCR6, dose range 1), > 80 µM (inactive); in assay [2] (setting [6]), more than 80 µM. The IC50 in assay [2] (CXCR6, run 2, dose range 1) is more than 80 µM; in assay [3] (setting [7]), 47.5 µM; in assay [3] (CCR6, run 2, dose range 1), 47.5 µM; in assay [4] (dose range 1), > 80 µM (inactive); in assay [4] (setting [5]), more than 80 µM. Further, the inhibition in assay [2] stood at 47.9%.
`CCc1ccccc1OCC(=O)Nc1nc(-c2cccnc2)cs1`: the IC50 in assay [1] (dose range 1) was 8.5 µM; in assay [1] (setting [5]) it was 12.5 µM; in assay [1] (run 2, dose range 1), 12 µM; in assay [1] (run 3, dose range 1), 17 µM; in assay [2] (setting [6]), 11 µM; in assay [2] (CXCR6, run 1, dose range 2), 7.82 µM. In addition, the IC50 in assay [2] (CXCR6, run 2, dose range 1) was 16.8 µM; in assay [2] (CXCR6, run 2, dose range 2) it was 8.73 µM; in assay [3] (CCR6, dose range 1), 6.24 µM; in assay [3] (setting [7]), 6.97 µM; in assay [3] (CCR6, run 2, dose range 1), 7.7 µM; in assay [4] (dose range 1), > 80 µM (inactive). The IC50 in assay [4] (setting [5]) is more than 80 µM. Further, in assay [2] (CXCR6, dose range 1), the IC50 result is “inactive”.
Turning to `Cc1ccc(C(=O)Sc2cccccc2=O)cc1`, the IC50 was 1.05 µM in assay [1] (dose range 1); 2.38 µM in assay [1] (setting [5]); 4.56 µM in assay [1] (run 2, dose range 1); 1.52 µM in assay [1] (run 3, dose range 1); 1.08 µM in assay [2] (CXCR6, dose range 1); 1.44 µM in assay [2] (setting [6]). Besides, the IC50 is 1.79 µM in assay [2] (CXCR6, run 2, dose range 1); 1.18 µM in assay [3] (CCR6, dose range 1); 1.55 µM in assay [3] (setting [7]); 1.92 µM in assay [3] (CCR6, run 2, dose range 1); > 80 µM (inactive) in assay [4] (dose range 1); more than 80 µM in assay [4] (setting [5]). For the same compound, the inhibition in assay [2] amounted to 42.3%.
For the compound `N#CC(C#N)=C1C=CC=CN1/C(=C\c1ccco1)C(=O)c1ccc(Cl)cc1`, the IC50 is 30.1 µM in assay [1] (dose range 1); 32.5 µM in assay [1] (setting [5]); 33.6 µM in assay [1] (run 2, dose range 1); 33.7 µM in assay [1] (run 3, dose range 1); 28 µM in assay [2] (setting [6]); 25 µM in assay [2] (CXCR6, run 2, dose range 1). Moreover, the IC50 in assay [3] (CCR6, dose range 1) was 20.9 µM; in assay [3] (setting [7]) it was 18.7 µM; in assay [3] (CCR6, run 2, dose range 1) it was 16.4 µM; in assay [4] (dose range 1), 15.1 µM; in assay [4] (setting [5]), 15.1 µM. The IC50 result in assay [2] (CXCR6, dose range 1) is “inactive”. In addition, the inhibition in assay [2] worked out at 125%.
For the compound `CC(=NNc1nc2ccccc2s1)c1ncccn1`, the IC50 was 16.9 µM in assay [1] (dose range 1); 17.4 µM in assay [1] (setting [5]); 20.5 µM in assay [1] (run 2, dose range 1); 14.8 µM in assay [1] (run 3, dose range 1); 11.3 µM in assay [2] (setting [6]); 10.5 µM in assay [2] (CXCR6, run 2, dose range 1). In addition, the IC50 in assay [3] (CCR6, dose range 1) was 7.51 µM; in assay [3] (setting [7]), 8.91 µM; in assay [3] (CCR6, run 2, dose range 1), 10.3 µM; in assay [4] (dose range 1), > 80 µM (inactive); in assay [4] (setting [5]), more than 80 µM. Besides, in assay [2] (CXCR6, dose range 1), the IC50 result was “inactive”. Also, the inhibition in assay [2] came to 125%.
With `COc1ccc(-n2c(O)c(/C=N/Nc3nc(C)cc(C)n3)c3ccccc3c2=O)cc1OC`, the IC50 was 49.6 µM in assay [1] (setting [5]); more than 80 µM in assay [1] (run 2, dose range 1); 49.6 µM in assay [1] (run 3, dose range 1); > 80 µM (inactive) in assay [2] (CXCR6, dose range 1); more than 80 µM in assay [2] (setting [6]); more than 80 µM in assay [2] (CXCR6, run 2, dose range 1). The IC50 in assay [3] (CCR6, dose range 1) is 31.3 µM; in assay [3] (setting [7]), 29.2 µM; in assay [3] (CCR6, run 2, dose range 1), 27.2 µM; in assay [4] (dose range 1) it was > 80 µM (inactive); in assay [4] (setting [5]), more than 80 µM. Besides, in assay [2], the inhibition worked out at 118%.
